According to article PMC12257397, “Scaffold Hopping Strategy toward New 4‑Aminoquinazolines Active Against Extracellular and Intracellular Mycobacterium tuberculosis” (ACS Medicinal Chemistry Letters, 2025):
≈ marks a conversion by molar mass, not a printed value.

Legend:
M. tuberculosis H37Rv-LP = tested on: M. tuberculosis H37Rv-LP; design: method as in PMID 35262374, PMID 29035551; settings: given in Figure 1A; cited from earlier work
[1] = tested on: M. tuberculosis H37Rv (Erdman); design: method as in PMID 31511370; settings: given in Figure 1A; cited from earlier work
[2] = tested on: M. tuberculosis qcrCAB (wt); design: method as in PMID 31511370; settings: given in Figure 1A; cited from earlier work
[3] = tested on: M. tuberculosis H37Rv (ATCC 27294); assay: MIC by resazurin reduction microplate assay (REMA); assay type: cell-based; settings: Mycobacterium tuberculosis, converted from μg/mL to μM
[4] = tested on: M. tuberculosis H37Rv-LP (ATCC 25618); assay: microbe, parasite or virus in culture; assay type: cell-based; settings: Mycobacterium tuberculosis, 120 h, concentration inhibiting 90% of growth, 5 days, read-out: MIC parental wild-type strain H37Rv-LP
in vitro [5] = settings: African green monkey
in vitro [6] = settings: human
in vitro [7] = settings: African green monkey; remark: listed apart in the source
[8] = tested on: Mycobacterium avium 2285S (smooth); assay: Antimicrobial spectrum MIC, M. avium smooth; assay type: cell-based
[9] = Microsomal stability, human liver microsomes (HLM); assay type: in vitro ADME; settings: both sexes, pH 7.4; for half-life at 6 μM: human liver microsomes, read-out: HLM t1/2
Method: (§1) 1.5. Microsomal stability
(§2) Test compound (6 μM) was incubated at 37 °C with male BALB/c mouse liver microsomes or mixed gender human liver microsomes (Xenotech LLC; 0.5 mg /mL, […] potassium phosphate buﬀer, pH 7.4) and the reaclon started with addilon of excess NADPH (2 mM, pH 7.4). Samples (35 µL) were removed at lme 0, 5, 10, 20, 30, and 60 min and mixed with 35 µL of acetonitrile, methanol, wate r s o l u lon (2:1:1) containing […] internal standard terfenadine and 0.05% v/v acelc acid. The samples were centrifuged at 4000 rpm for 10 min and the supernatant was analyzed using a 1100 HPLC and Single Quad 6120 (Agilent, USA). Compounds were tested in duplic ate, and an exponenlal decay curve ﬁt was used on the ralo of peak area of test compound to internal standard at each lme point to calculate the rate constant (k). The rate of intrinsic clearance (CLint) of each test compound was then calculated using the following equalon: CLint (mL/min/mg) = k x V where V was mL/mg protein. Verapamil (6 μM) was used as a posilve control. Incubalon of each compound with microsomes in the absence of NADPH and analyzed at 0 and 60 min was used as the negalve control.
(§3) The human biological samples were sourced ethically, and their research use was in accord with the terms of the informed consents.

[10] = Microsomal stability, mouse liver microsomes (MLM); assay type: in vitro ADME; settings: male, BALB/c, pH 7.4; for half-life at 6 μM: mouse liver microsomes, read-out: MLM t1/2
Method: as §1, §2, §3

in vitro [11] = settings: human; remark: listed apart in the source
Escherichia coli RFM 795 = assay: Antimicrobial spectrum MIC, E. coli; assay type: cell-based; settings: Escherichia coli RFM 795 (lptD mutation)
in vitro [12] = settings: human; remark: listed apart in the source
[13] = tested on: Mycobacterium avium 2285R (rough); assay: Antimicrobial spectrum MIC, M. avium rough; assay type: cell-based
[14] = tested on: H37Rv-LP (ATCC 25618) inside THP-1 cells; assay: microbe, parasite or virus in culture; assay type: cell-based; settings: Mycobacterium tuberculosis, 72 hours; for IC50: growth of H37Rv-LP inside THP-1 cells inhibited by 50%, read-out: Intracellular IC50; for IC90: growth of H37Rv-LP inside THP-1 cells inhibited by 90%, read-out: Intracellular IC90
[15] = tested on: Mycobacterium abscessus 103R; assay: Antimicrobial spectrum MIC, M. abscessus; assay type: cell-based
[16] = tested on: Mycobacterium smegmatis mc2155; assay type: cell-based
[17] = tested on: M. tuberculosis H37Rv-LP (ATCC 25618); assay: ATP depletion assay (BacTiter-Glo); assay type: cell-based, Mycobacterium tuberculosis; settings: compared to the positive control Q203
[18] = tested on: Staphylococcus aureus (ATCC 29213); assay: Antimicrobial spectrum MIC, S. aureus; assay type: cell-based

Row | SMILES | MIC H37Rv-LP (M. tuberculosis H37Rv-LP) | MIC [3] | MIC [4] | CC50 at 72 h (in vitro [6]; CC50 HepG2+Gal) | CC50 at 72 h (in vitro [6]; CC50 HepG2+Glu) | CIM 2285S [8] | microsomal CLint at 6 μM ([9]; human, microsomes) | half-life at 6 μM [9] | microsomal CLint at 6 μM ([10]; mouse, microsomes) | half-life at 6 μM [10] | CC50 at 72 h (in vitro [11]) | CIM RFM 795 (Escherichia coli RFM 795) | CC50 at 72 h (in vitro [12]) | CIM 2285R [13] | IC50 [14] | IC90 [14] | CIM 103R [15] | CIM mc2155 [16] | CIM 29213 [18] | other results
1 | FC(F)(F)c1ccc(CCNc2cc(-c3ccccn3)nc3ncnn23)cc1 [1 (TAP)] | 1.4 µM (≈ 0.538 µg/mL) |  |  |  |  |  |  |  |  |  |  |  |  |  |  |  |  |  |  | 
2 | CCc1nc2ccc(C)cc2n1CCCNc1ccccc1 [2 (FABA)] | 0.056 µM (≈ 0.0164 µg/mL) |  |  |  |  |  |  |  |  |  |  |  |  |  |  |  |  |  |  | 
3 | CCc1nc(NCCCc2ccccc2)c2cc(C)sc2n1 [3 (CWHM-1023)] |  |  |  |  |  |  |  |  |  |  |  |  |  |  |  |  |  |  |  | IC50 [1]: 0.042 µM; IC50 [2]: 0.025 µM
4 | Cc1nc(NCCc2ccccc2)c2cc(I)ccc2n1 [9d] |  | 3.2 µM (≈ 1.25 µg/mL) | 0.95 µM (≈ 0.37 µg/mL) | 5.1 µM | 10.9 µM |  |  |  |  |  |  |  |  |  |  |  |  |  |  | CC50 at 72 h (in vitro [5]): 11.7 µM; CC50 at 72 h (in vitro [7]): 11.7 µM
5 | Cc1nc(NCCCc2ccccc2)c2cc(Br)ccc2n1 [18c] |  | 0.45 µM (≈ 0.16 µg/mL) | 0.28 µM (≈ 0.0998 µg/mL) | 9.7 µM | 19.1 µM | > 100 µM | 184 µL/min/mg | 7.5 min | 354 µL/min/mg | 3.9 min | 13.8 µM | > 100 µM | 13.2 µM | > 100 µM | 0.16 µM | 0.45 µM | > 100 µM | > 56.1 µM | > 100 µM | remaining at 0.5 h, 6 μM ([9]; human, microsomes): 6%; remaining at 20 min, 6 μM ([10]; mouse, microsomes): 2%; ATP depletion profile [17]: none of the selected molecules produced a significant ATP depletion profile
6 | Cc1nc(NCCCc2ccccc2)c2cc(I)ccc2n1 [18d] |  | 1.6 µM (≈ 0.645 µg/mL) | 0.58 µM (≈ 0.234 µg/mL) | 13 µM | 20.3 µM | > 100 µM | 243 µL/min/mg | 5.7 min | 202 µL/min/mg | 6.9 min | > 20 µM | > 100 µM | 18.3 µM | > 100 µM | 0.47 µM | 1.2 µM | > 100 µM | > 12.4 µM | > 100 µM | remaining at 20 min, 6 μM ([9]; human, microsomes): 9%; remaining at 5 min, 6 μM ([10]; mouse, microsomes): 63%
